Results as given in patent US20210369642A1, “THERAPEUTIC CANNABINOID DERIVATIVES COMPOSITION AS HISTAMINE 2 (H2) BLOCKING AGENTS” (priority 2018, published 2021).

Assays:
Type in all cases: cell-based
HRH2 [1] = biological target: T1, HRH2 (Homo sapiens, UniProt P25021); assay: H2 blockade assay: cAMP assay, antagonist mode (agonist challenge at EC80); details: for antagonist activity against H2 (in words): in-vitro
Protocol: The cAMP assays can monitor the activation of a GPCR via Gi and Gs secondary messenger signalling in a homogenous, non-imaging assay format using, for example, a technology developed by DiscoverX called Enzyme Fragment Complementation (EFC) with β-galactosidase (β-Gal) as the functional reporter.
The cannabinoid-based pharmaceutical composition according to FIG. 1 was subjected to an H2 blockade assay. For antagonist determination, cells were pre-incubated with sample followed by agonist challenge at the EC80 concentration. Media was aspirated from cells and replaced with 10 μL 1:1 BSS/Hepes: cAMP XS+ Ab reagent. 5 μL of 4X compound was added to the cells and incubated at […] or room temperature for 30 minutes. 5 μL of 4X EC80 agonist was added to cells and incubated at 37° C. or room temperature for 30 or 60 minutes.
The enzyme is split into two complementary portions, Enzyme Acceptor (EA) and Enzyme Donor (ED). ED is fused to cAMP and in the assay competes with cAMP generated by cells for binding to a cAMP-specific antibody. Active β-Gal is formed by complementation of exogenous EA to any unbound ED-cAMP.

HRH2 [2] = biological target: T1, HRH2; assay: cAMP assay, agonist mode; details: for % Response Average / % Response Replicate 1 / % Response Replicate 2: 10 uM, cAMP, HRH2, Agonist mode
HRH1 [3] = biological target: T2, HRH1 (Homo sapiens, UniProt P35367); assay: Calcium Flux assay, agonist mode; details: for % Response Average / % Response Replicate 1 / % Response Replicate 2: 10 uM, Calcium Flux, HRH1, Agonist mode
HRH1 [4] = biological target: T2, HRH1; assay: Calcium Flux assay, antagonist mode; details: for % Response Average / % Response Replicate 1 / % Response Replicate 2: 10 uM, Calcium Flux, HRH1, Antagonist mode; for antagonist activity against H1 (in words): single concentration of 10 μM
[5] = 10 uM, cAMP, HRH2, Antagonist mode

T1 sequence (P25021 whole entry, the tested form may be a part): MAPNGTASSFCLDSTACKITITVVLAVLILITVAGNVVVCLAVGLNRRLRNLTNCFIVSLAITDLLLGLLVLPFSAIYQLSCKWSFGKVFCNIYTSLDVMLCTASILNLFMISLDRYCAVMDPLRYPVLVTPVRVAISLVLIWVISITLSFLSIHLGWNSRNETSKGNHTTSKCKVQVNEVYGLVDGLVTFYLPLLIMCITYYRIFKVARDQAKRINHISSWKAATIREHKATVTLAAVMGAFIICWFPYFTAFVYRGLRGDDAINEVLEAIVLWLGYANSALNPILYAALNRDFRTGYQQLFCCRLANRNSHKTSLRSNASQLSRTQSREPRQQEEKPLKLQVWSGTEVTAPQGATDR
T2 sequence (P35367 whole entry): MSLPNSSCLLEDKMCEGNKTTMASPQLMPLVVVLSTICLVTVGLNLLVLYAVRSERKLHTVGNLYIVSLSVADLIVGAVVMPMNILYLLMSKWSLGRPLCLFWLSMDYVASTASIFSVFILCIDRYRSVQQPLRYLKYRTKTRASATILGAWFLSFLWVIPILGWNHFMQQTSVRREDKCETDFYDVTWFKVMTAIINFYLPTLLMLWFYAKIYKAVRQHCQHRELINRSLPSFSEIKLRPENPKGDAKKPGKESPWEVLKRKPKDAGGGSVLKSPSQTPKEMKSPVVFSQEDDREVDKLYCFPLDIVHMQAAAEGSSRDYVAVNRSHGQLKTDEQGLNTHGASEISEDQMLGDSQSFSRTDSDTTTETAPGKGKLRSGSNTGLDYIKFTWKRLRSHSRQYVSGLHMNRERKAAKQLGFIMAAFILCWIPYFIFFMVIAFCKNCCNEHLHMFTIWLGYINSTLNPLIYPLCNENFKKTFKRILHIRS

Structure (SMILES)	% Response Average (HRH2 [1]; [5])	% Response Replicate 1 (HRH2 [1]; [5])	% Response Replicate 2 (HRH2 [1]; [5])	antagonist activity against H2 (in words) (HRH2 [1])	% Response Average (HRH2 [2])	% Response Replicate 1 (HRH2 [2])	% Response Replicate 2 (HRH2 [2])	% Response Average (HRH1 [3])	% Response Replicate 1 (HRH1 [3])	% Response Replicate 2 (HRH1 [3])	% Response Average (HRH1 [4])	% Response Replicate 1 (HRH1 [4])	% Response Replicate 2 (HRH1 [4])	antagonist activity against H1 (in words) (HRH1 [4])	IC50 (HRH2 [1]; dose-response / concentration dependent assay)	inhibition at 10 µM (HRH2 [1]; preliminary assay, single concentration of 10 μM, read-out: inhibited H2 by %)	agonist activity against H2 (in words) (HRH2 [2]; single concentration of 10 μM)	agonist activity against H1 (in words) (HRH1 [3]; single concentration of 10 μM)
CCCCCc1cc(O)c2c(c1)OC(C)(C)[C@@H]1CCC(C)=C[C@@H]21 [THC, Tetrahydrocannabinol, reference compound]	7.7%	−2.0%	17.3%	none	3.2%	4.3%	2.0%	−0.7%	−0.5%	−0.9%	78.2%	77.0%	79.3%	showed antagonist activity	–	–	–	–
C=C(C)[C@@H]1CCC(C)=C[C@H]1c1c(O)cc(CCCCC)cc1O [CBD, Cannabidiol]	–	–	–	potent antagonist	5.1%	4.7%	5.5%	0.3%	0.3%	0.2%	10.1%	7.6%	12.5%	no agonist or antagonist activity	1530 nM	91.5%	no agonist activity	no agonist or antagonist activity
